Reference: ChEMBL document CHEMBL1201862, “PubChem BioAssay data set” (2004)
Calls of active or inactive are those of the source.

Tests used:
[1] = target: T1, Probable nicotinate-nucleotide adenylyltransferase (Staphylococcus aureus (strain N315), UniProt P65502); assay type: functional, Staphylococcus aureus subsp. aureus N315;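 on IC50 Mean: confirmatory dose-response retesting of NadD inhibitor hits first found in an ultra-high-throughput screen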
[2] = target: T1, Probable nicotinate-nucleotide adenylyltransferase; assay type: functional, Staphylococcus aureus subsp. aureus N315; settings: read-out: IC50_Mean
Aminopeptidase N = target: T2, Aminopeptidase N (Plasmodium falciparum FcB1/Columbia, UniProt O96935); experiment: malaria alanyl aminopeptidase activity blockers – biochemical, fluorogenic H-Leu-NHMec substrate, 1536-well (AID 1445); design: species or system Plasmodium falciparum 3D7, 3D7
T2 sequence (O96935 whole entry): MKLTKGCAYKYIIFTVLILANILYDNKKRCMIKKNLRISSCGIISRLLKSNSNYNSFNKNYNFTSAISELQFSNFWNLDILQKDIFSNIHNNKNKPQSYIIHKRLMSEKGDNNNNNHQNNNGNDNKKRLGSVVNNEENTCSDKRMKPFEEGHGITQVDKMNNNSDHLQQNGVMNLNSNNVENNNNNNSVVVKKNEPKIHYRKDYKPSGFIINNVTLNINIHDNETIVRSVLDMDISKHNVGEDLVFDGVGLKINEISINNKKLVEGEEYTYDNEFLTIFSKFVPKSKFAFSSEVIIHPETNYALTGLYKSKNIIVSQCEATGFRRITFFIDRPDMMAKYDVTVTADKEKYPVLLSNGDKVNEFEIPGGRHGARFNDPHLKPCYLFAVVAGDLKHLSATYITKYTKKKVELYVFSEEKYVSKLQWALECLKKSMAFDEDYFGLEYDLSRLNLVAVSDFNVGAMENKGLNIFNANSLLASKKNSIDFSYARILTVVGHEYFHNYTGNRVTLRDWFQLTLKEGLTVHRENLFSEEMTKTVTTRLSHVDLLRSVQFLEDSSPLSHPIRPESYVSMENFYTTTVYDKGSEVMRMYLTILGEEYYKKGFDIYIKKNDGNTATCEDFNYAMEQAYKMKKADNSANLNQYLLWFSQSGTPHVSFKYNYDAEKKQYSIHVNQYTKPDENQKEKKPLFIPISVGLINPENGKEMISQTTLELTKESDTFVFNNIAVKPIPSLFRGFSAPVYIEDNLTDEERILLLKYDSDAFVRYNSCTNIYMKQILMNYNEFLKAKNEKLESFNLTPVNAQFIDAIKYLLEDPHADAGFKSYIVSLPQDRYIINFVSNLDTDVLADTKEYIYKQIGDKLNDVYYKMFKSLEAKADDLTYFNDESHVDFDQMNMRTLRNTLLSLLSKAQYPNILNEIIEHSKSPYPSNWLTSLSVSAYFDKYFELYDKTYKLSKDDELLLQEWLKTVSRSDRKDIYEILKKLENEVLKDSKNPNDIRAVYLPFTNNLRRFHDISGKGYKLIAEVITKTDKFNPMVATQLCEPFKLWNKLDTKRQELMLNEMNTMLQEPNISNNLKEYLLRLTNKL

Cytochrome P450 2C19 = Cytochrome P450 2C19 (Homo sapiens, UniProt P33261); experiment: Cytochrome panel assay with activity outcomes. Panel member name: p450-cyp2c19 Compounds with AC50 equal or less than 10 uM are considered active; assay type: functional
Chain of Cytochrome P450 2C19 (P33261 whole entry): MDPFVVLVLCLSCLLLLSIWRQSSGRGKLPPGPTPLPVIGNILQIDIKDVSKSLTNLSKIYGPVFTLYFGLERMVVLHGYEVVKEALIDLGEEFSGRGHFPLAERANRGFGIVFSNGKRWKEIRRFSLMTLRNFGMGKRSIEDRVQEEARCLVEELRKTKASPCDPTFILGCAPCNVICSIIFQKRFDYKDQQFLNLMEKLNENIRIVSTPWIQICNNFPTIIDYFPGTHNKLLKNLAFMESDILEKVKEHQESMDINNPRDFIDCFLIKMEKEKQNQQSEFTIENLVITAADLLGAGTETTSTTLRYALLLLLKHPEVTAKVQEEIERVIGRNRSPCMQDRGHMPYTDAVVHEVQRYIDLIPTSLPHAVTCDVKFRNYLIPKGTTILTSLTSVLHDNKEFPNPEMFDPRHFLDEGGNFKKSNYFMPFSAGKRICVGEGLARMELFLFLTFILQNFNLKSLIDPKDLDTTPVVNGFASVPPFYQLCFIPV

H9c2 = experiment: cells; assay type: functional, cell-based; settings: Rattus norvegicus, H9c2, Myocardium
[3] = target: T3, High affinity choline transporter 1 (Homo sapiens, UniProt Q9GZV3); experiment: human choline transporter blockers, potency – cell-based, 5-point CRC, membrane potential dye, dose response (AID 504840); assay type: functional
T3 sequence (Q9GZV3 whole entry): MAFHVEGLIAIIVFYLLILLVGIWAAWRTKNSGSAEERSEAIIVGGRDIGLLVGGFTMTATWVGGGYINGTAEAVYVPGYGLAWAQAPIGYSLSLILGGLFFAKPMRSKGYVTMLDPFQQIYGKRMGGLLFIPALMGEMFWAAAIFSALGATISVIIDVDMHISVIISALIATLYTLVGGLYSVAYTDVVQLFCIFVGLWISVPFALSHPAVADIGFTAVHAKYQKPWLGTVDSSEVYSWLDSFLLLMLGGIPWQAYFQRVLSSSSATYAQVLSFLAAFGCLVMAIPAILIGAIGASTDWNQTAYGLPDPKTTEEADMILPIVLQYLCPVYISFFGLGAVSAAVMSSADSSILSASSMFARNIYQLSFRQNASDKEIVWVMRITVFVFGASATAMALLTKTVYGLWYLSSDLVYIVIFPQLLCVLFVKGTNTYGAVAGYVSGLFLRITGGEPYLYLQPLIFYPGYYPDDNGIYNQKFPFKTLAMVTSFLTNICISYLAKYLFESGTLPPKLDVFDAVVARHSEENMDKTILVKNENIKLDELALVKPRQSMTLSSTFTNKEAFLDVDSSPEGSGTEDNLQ

[4] = reduction of Shn3 3'UTR-driven luciferase in osteoblasts – cell-based, Clone20 osteoblasts, firefly luciferase, cherry-picked, dose response (AID 624132); assay type: functional;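 further: firefly luciferase luminescence from reporter carrying the Shn3 3'UTR in osteoblasts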
Protein skinhead-1 = target: T4, Protein skinhead-1 (Caenorhabditis elegans, UniProt P34707); assay type: functional
T4 sequence (P34707 whole entry): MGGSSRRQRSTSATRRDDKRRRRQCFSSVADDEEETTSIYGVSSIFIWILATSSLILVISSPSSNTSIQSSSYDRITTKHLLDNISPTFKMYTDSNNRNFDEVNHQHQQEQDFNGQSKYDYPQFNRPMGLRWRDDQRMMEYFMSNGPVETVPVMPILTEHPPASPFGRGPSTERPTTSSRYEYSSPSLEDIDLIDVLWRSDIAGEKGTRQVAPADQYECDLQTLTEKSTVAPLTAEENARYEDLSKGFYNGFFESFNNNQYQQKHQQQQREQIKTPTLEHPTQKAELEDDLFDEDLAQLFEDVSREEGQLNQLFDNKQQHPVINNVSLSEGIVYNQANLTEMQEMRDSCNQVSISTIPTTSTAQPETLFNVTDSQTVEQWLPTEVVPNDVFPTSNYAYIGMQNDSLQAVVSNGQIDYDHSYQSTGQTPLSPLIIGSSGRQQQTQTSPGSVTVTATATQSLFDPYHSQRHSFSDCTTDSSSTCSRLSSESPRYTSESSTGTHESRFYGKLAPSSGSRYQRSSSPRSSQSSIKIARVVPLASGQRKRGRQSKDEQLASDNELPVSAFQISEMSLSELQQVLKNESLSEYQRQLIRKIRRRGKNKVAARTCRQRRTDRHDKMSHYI

[5] = Luminescence Cell-Based Dose Confirmation HTS to Identify Inhibitors of Platelet Dense Granule Release. [Related pubchem assays: 1663 (Primary HTS), 1678 (Summary of Project)]; assay type: functional
[6] = alpha-synuclein stem-loop luciferase translation blockers – H4 neuroglioma cells, luminescence, confirmation (AID 1988); assay type: functional, cell-based
[7] = luciferase reporter signal suppression in cells – H4 neuroglioma cells, luminescence, dose response (AID 1990); assay type: functional, cell-based
[8] = loss of viability in HepG2 cells – cell-based, CellTiter-Glo, cherry-picked, cytotoxicity control for Shn3 inhibitor project, dose response (AID 624134); assay type: functional
[9] = Luminescence Cell-Based Dose Response HTS to Identify Inhibitors of 5'UTR Stem-Loop Driven Prion Protein mRNA Translation in H4 Neuroglioblastoma Cells. [Related pubchem assays: 1827 (Project Summary), 1813 (Primary HTS)]; assay type: functional
[10] = non-specific 3'UTR reporter inhibition in Clone20-Shn3RL – cell-based, Renilla luciferase, cherry-picked, counter-screen for Shn3 inhibitor project, dose response (AID 624133); assay type: functional
[11] = target: Luciferin 4-monooxygenase (Photinus pyralis, UniProt P08659); experiment: inhibition of purified Photinus pyralis luciferase – biochemical, luminescence, dose response (AID 1891)
Chain of Luciferin 4-monooxygenase (P08659 whole entry): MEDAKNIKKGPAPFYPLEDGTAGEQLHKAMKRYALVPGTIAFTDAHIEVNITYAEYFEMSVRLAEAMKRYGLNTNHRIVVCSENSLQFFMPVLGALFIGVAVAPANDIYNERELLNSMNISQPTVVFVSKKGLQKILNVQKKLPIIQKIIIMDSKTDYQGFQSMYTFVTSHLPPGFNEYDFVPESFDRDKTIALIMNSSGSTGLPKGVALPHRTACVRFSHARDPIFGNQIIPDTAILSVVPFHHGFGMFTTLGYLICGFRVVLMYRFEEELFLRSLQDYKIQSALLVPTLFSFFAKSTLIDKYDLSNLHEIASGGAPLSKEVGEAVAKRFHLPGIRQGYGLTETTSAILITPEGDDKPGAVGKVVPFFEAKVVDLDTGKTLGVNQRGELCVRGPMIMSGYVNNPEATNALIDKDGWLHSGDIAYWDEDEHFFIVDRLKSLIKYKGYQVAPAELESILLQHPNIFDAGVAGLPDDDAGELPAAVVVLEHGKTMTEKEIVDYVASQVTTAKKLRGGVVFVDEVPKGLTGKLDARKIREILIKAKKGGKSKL

[12] = target: T5, Heat shock factor protein 1 (Mus musculus, UniProt P38532); experiment: decrease of HSF1-responsive luciferase luminescence – cell-based, NIH3T3, dose retest, confirmation (AID 2382); assay type: functional;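 further: NIH3T3 fibroblasts with HSF1-driven luciferase reporter stressed by proteasome inhibitor MG132; luminescence from HSF1-driven luciferase expression after 8 hours of MG132 stress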
T5 sequence (P38532 whole entry): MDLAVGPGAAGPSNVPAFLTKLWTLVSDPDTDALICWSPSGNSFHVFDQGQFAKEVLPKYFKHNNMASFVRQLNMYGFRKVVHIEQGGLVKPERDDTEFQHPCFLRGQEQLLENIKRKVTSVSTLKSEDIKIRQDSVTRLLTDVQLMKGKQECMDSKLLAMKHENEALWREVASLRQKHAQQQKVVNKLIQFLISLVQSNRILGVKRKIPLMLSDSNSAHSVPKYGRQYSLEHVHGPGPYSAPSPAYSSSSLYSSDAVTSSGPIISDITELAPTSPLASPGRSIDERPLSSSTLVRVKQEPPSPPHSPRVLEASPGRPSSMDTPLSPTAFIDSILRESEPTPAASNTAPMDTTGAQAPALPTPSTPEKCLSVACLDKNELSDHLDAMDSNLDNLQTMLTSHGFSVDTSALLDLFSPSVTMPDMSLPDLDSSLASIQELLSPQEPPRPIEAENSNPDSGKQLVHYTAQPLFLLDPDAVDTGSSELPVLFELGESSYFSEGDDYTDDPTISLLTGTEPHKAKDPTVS

Caspase-6 = target: T6, Caspase-6 (Homo sapiens, UniProt P55212); experiment: inhibition of CASP6 peptide cleavage – biochemical, VEID-R110 fluorescence, cherry-pick, dose response (AID 720632)
T6 sequence (P55212 whole entry): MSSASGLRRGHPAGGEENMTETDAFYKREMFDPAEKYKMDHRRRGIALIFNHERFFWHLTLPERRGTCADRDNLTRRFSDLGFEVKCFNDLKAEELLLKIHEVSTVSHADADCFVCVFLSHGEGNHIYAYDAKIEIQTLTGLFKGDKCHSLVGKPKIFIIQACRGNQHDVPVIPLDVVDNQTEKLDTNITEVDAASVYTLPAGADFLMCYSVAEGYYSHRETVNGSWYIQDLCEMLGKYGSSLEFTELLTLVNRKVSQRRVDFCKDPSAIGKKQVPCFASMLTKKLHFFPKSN

Paired box protein Pax-8 = Paired box protein Pax-8 (Homo sapiens, UniProt Q06710); experiment: PAX8 transcriptional activity inhibition in RMG-I – RMG-I cells, luciferase, cherry-pick, dose response (AID 687027); assay type: functional, cell-based;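 further: luciferase reporter driven by Pax8 target thyroperoxidase promoter measured by SteadyGlo luminescence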
Chain of Paired box protein Pax-8 (Q06710 whole entry): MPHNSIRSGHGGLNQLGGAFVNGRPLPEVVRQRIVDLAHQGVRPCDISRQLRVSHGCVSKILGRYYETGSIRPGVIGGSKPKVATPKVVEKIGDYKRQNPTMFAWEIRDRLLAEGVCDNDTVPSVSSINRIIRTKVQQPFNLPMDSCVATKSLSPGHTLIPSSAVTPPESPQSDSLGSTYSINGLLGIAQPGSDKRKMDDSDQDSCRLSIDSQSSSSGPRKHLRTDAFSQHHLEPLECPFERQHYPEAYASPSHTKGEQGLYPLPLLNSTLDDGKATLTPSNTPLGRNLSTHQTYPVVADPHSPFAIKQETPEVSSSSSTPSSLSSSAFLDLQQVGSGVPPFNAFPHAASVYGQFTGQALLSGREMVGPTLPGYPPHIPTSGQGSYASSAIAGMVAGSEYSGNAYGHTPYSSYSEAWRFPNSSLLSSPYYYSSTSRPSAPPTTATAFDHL

T1 sequence (P65502 whole entry): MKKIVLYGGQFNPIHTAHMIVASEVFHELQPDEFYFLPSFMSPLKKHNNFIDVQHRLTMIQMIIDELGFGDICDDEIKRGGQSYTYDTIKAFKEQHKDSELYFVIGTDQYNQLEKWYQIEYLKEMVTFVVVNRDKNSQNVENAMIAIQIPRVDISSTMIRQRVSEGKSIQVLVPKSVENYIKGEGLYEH

## CCc1cccc2c(/C=N/NC(=O)c3cccc(S(=O)(=O)Nc4ccccc4Cl)c3)c[nH]c12
[1]
  IC50: 11.2 µM (active)
[2]
  IC50: 31.2 µM (active)

## CCOc1nc(N=C(N)N)nc2c(C)cccc12
Aminopeptidase N
  IC50: 7.38 µM (active)
Cytochrome P450 2C19
  AC50: inconclusive

## CC(=O)c1cccc(-c2cnc3c(NC=O)cc(-c4cccc(C(=O)N(C)C)c4)cn23)c1
H9c2
  IC50: > 79 µM (inactive)

## Cc1ccc(C)c(NC(=O)C(OC(=O)c2ccc(NC(=O)CC#N)cc2)c2ccccc2)c1 (stereo not drawn)
[1]
  IC50: 11.4 µM (active)
[2]
  IC50: 42.7 µM (active)

## Cn1/c(=N/CC(O)COc2ccccc2)sc2ccccc21 (stereo not drawn)
[3]
  IC50: 13.5 µM (active)

## COc1ccc(C(C(=O)NC2CCCCC2)N(C(=O)c2ccco2)c2ccccc2C(C)=O)cc1OC (stereo not drawn)
[3]
  IC50: 2 µM (active)

## c1ccc(CCCCN2C(Nc3ccccc3)=NC[C@@H]2Cc2ccccc2)cc1
[3]
  IC50: 12 µM (active)

## CN(C)C(=O)c1ccc(-c2nnc(O)c3ccccc23)cc1
H9c2
  IC50: > 79 µM (inactive)

## COc1ccc2c(c1)sc1nc(-c3ccccc3)cn12
[4]
  AC50: 7.37 µM (active)
Protein skinhead-1
  IC50: > 100 µM (inactive)
[5]
  EC50: 4.62 µM (active)
[6]
  EC50: 0.299 µM (active)
[7]
  EC50: 0.681 µM (active)
[8]
  AC50: 42.3 µM (active)
[9]
  EC50: 0.388 µM (active)
[10]
  AC50: 13.2 µM (active)
[11]
  EC50: 0.669 µM (active)
[12]
  EC50: 2.23 µM (active)

## COc1ccc2ccccc2c1/C=N/NC(=O)c1nnn(-c2nonc2N)c1C(C)C
[1]
  IC50: 38 µM (active)
[2]
  IC50: 78 µM (active)

## Cc1ccc(S(=O)(=O)N(NC2=NS(=O)(=O)c3ccccc32)C(=O)c2ccccc2)cc1
Aminopeptidase N
  IC50: 46.8 µM (active)

## C/C(=N\Nc1ccc(C(=O)O)cc1)c1ccc(Br)cc1
Caspase-6
  AC50: 7.07 µM (active)

## O=C(COC(=O)c1ccc(Oc2ccccc2)cc1)Nc1nnc(-c2ccccc2)o1
[1]
  IC50: 9.58 µM (active)
[2]
  IC50: 23.8 µM (active)

## CCc1cc(=O)oc2c(CN3CCN(C)CC3)c(O)c(Cl)cc12
Aminopeptidase N
  IC50: 35.9 µM (active)

## CC1CCCCN1CCNC(=O)CN1C(=O)CSc2ccc(S(=O)(=O)N3CCCCC3)cc21 (stereo not drawn)
[3]
  IC50: 12.9 µM (active)

## COc1ccc(-c2cnc3c(NC=O)cc(-c4cccc(NS(C)(=O)=O)c4)cn23)cc1OC
Paired box protein Pax-8
  AC50: 5.09 µM (active)
H9c2
  IC50: > 79 µM (inactive)

## CCC(C)(C)n1nnnc1C(c1ccc2ncccc2c1)N1CCN(c2nc3ccccc3s2)CC1 (stereo not drawn)
Aminopeptidase N
  IC50: 51.1 µM (active)

## C[n+]1ccccc1COc1ccc(C(C)(C)C)cc1
[3]
  IC50: 13.8 µM (active)
